Test results as given in ChEMBL document CHEMBL1275576, “In vitro activity of tomopenem (CS-023/RO4908463) against anaerobic bacteria” (Antimicrob Agents Chemother, 2009).

Columns and labels:
[1] = Half life in human at […] by HPLC method; assay type: ADME, organism-based; details: in vivo
[2] = system: Plasma; assay: Plasma protein binding in human at […] by HPLC method; assay type: ADME, cell-free
[3] = Half life in rhesus monkey at 10 mg/kg by HPLC method; assay type: ADME, organism-based, Macaca mulatta; set-up: dose 10 mg/kg; details: in vivo

half-life [1]: 5 h | Activity [2]: > 95% | half-life [3]: 5 h
SMILES: C[C@@H](O)[C@H]1C(=O)N2C(C(=O)O)=C(S[C@@H]3CN[C@H](C(=O)Nc4cccc(C(=O)O)c4)C3)[C@H](C)[C@H]12
